Patent publication US9051270B2, “Pyridone amides as modulators of sodium channels” (Vertex Pharmaceuticals Incorporated, priority 2013, dated 2015)

Legend:
[1] = Microsomal stability assay, rat liver microsomes (RLM); format: in vitro ADME; conditions: rat liver microsomes 0.5 mg/mL, 1 uM substrate, 2 mM NADPH, 37° C., referenced against time zero control
Method: (§1) Microsomal Stability Assay.
(§2) Compounds were incubated at 37° C. and shaken for 30 minutes in a phosphate buffered solution with either rat or human liver microsomes and the cofactor NADPH. A time zero control was similarly prepared, however with NADPH excluded. The final incubation concentrations were 1 uM substrate (0.2% DMSO), 0.5 mg/mL liver microsome, 2 mM NADPH, and 0.1 M phosphate. Reactions were quenched and proteins precipitated with the addition of 2 volume equivalents of ice cold acetonitrile containing an internal standard. Following a centrifugation step, aliquots from the quenched incubations were further diluted with 4 volume equivalents of a 50% aqueous methanol solution and then subjected to LC/MS/MS analysis for quantitation of parent compound. Microsome stability values were calculated as the percent of substrate remaining after 30 minutes referenced against the time zero control.
(§3) Microsomal stability in rat and human liver microsomes were determined for selected compounds of the present invention using the above assay. Table 4 provides the human liver microsomes (“HLM”) and rat liver microsomes (“RLM”) stability data as the percent of compound remaining after 30 minutes referenced against the time zero control.

human Nav1.8 = human Nav1.8 (Homo sapiens (Human), UniProt Q9Y5Y9); assay: E-VIPR optical membrane potential assay with electrical stimulation; format: cell-based; conditions: HEK cells expressing human Nav1.8
[2] = Microsomal stability assay, human liver microsomes (HLM); format: in vitro ADME; conditions: human liver microsomes 0.5 mg/mL, 1 uM substrate, 2 mM NADPH, 37° C., referenced against time zero control
Method: as §1, §2, §3

Chain of human Nav1.8 (Q9Y5Y9 whole entry): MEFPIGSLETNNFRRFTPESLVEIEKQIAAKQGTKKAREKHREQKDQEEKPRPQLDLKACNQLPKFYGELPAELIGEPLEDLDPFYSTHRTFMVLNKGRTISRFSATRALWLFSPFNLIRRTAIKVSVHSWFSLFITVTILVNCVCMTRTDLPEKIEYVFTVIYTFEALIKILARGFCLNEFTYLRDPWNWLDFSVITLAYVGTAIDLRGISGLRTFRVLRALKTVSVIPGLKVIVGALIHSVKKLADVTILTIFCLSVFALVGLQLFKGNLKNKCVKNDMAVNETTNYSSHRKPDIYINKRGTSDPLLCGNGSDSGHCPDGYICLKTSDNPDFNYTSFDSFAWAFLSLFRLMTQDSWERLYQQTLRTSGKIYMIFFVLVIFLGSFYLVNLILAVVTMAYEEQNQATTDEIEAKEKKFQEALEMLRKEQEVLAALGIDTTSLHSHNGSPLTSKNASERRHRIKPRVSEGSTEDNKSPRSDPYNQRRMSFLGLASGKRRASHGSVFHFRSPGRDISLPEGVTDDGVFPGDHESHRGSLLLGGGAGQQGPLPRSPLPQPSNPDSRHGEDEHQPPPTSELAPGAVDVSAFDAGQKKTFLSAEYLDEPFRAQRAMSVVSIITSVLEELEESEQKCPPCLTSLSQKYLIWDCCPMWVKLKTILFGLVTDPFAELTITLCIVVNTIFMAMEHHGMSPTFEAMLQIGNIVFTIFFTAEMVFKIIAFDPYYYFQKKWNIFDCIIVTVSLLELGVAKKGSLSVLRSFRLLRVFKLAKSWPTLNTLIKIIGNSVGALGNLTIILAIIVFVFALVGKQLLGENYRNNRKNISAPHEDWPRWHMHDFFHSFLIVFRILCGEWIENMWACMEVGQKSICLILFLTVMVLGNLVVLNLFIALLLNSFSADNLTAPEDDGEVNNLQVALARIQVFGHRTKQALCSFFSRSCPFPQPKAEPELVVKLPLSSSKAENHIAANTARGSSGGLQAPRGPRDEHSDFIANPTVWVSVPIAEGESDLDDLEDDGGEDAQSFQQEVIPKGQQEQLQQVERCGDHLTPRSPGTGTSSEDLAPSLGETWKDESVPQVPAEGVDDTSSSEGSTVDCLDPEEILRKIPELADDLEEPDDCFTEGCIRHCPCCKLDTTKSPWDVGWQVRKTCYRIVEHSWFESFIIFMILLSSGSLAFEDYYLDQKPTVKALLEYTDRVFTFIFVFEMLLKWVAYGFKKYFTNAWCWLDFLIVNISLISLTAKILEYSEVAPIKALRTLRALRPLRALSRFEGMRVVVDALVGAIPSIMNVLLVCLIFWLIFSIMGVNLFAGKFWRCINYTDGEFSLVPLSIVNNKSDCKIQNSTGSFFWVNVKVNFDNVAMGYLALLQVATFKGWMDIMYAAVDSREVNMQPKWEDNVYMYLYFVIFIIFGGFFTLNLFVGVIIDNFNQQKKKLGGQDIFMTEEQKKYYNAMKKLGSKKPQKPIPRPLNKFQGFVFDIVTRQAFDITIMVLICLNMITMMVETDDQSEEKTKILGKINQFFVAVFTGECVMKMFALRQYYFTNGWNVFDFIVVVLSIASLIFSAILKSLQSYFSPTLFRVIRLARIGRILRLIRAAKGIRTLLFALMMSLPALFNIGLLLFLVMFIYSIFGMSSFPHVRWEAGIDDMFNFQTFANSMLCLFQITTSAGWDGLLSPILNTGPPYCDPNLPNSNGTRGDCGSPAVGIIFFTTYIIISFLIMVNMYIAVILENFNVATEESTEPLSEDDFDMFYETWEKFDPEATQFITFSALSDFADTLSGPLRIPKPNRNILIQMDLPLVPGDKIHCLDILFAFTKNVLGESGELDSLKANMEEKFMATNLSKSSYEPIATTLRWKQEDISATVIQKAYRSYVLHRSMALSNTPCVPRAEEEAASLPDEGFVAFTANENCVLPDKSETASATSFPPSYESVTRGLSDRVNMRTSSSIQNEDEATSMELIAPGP

SMILES	RLM (% remaining @ 30 minutes) [1]	IC50 (human Nav1.8)	HLM (% remaining @ 30 minutes) [2]
O=C(Nc1cc[nH]c(=O)c1)c1cc(F)ccc1Oc1ccc(OC(F)(F)F)cc1 [Compound 101, 5-fluoro-N-(2-oxo-1,2-dihydropyridin-4-yl)-2-(4-(trifluoromethoxy)phenoxy)benzamide]	89%	0.12 µM	97%
CCOc1ccc(Oc2ccc(C(F)(F)F)cc2C(=O)Nc2cc[nH]c(=O)c2)cc1 [Compound 44, 2-(4-ethoxyphenoxy)-N-(2-oxo-1,2-dihydropyridin-4-yl)-5-(trifluoromethyl)benzamide]	84%	0.02 µM	93%
O=C(Nc1cc[nH]c(=O)c1)c1cc(C(F)(F)F)ccc1Oc1ccc(F)c(F)c1F [Compound 90, N-(2-oxo-1,2-dihydropyridin-4-yl)-5-(trifluoromethyl)-2-(2,3,4-trifluorophenoxy)benzamide]	104%	0.026 µM	101%
O=C(Nc1cc[nH]c(=O)c1)c1ccc(C(F)(F)F)cc1Oc1ccc(F)cc1F [Compound 7, 2-(2,4-difluorophenoxy)-N-(2-oxo-1,2-dihydropyridin-4-yl)-4-(trifluoromethyl)benzamide]	99%	0.05 µM	97%
O=C(Nc1cc[nH]c(=O)c1)c1ccc(C(F)(F)F)cc1Oc1ccc(F)cc1CO [Compound 157, 2-(4-fluoro-2-(hydroxymethyl)phenoxy)-N-(2-oxo-1,2-dihydropyridin-4-yl)-4-(trifluoromethyl)benzamide]	102%	0.058 µM	101.5%
COCCOc1ccc(Oc2cc(C(F)(F)F)ccc2C(=O)Nc2cc[nH]c(=O)c2)cc1 [Compound 8, 2-(4-(2-methoxyethoxy)phenoxy)-N-(2-oxo-1,2-dihydropyridin-4-yl)-4-(trifluoromethyl)benzamide]	86%	0.33 µM	90%
O=C(Nc1cc[nH]c(=O)c1)c1ccc(C(F)(F)F)cc1OCC1CCCC1 [Compound 120, 2-(cyclopentylmethoxy)-N-(2-oxo-1,2-dihydropyridin-4-yl)-4-(trifluoromethyl)benzamide]	79%	0.15 µM	87%
O=C(Nc1cc[nH]c(=O)c1)c1cc(C(F)(F)F)ccc1Oc1ccccc1OC(F)(F)F [Compound 75, N-(2-oxo-1,2-dihydropyridin-4-yl)-2-(2-(trifluoromethoxy)phenoxy)-5-(trifluoromethyl)benzamide]	95%	0.051 µM	90%
O=C(Nc1cc[nH]c(=O)c1)c1cc(OC(F)(F)F)ccc1Oc1ccc(F)cc1F [Compound 33, 2-(2,4-difluorophenoxy)-N-(2-oxo-1,2-dihydropyridin-4-yl)-5-(trifluoromethoxy)benzamide]	110%	0.095 µM	100%
O=C(Nc1cc[nH]c(=O)c1)c1cc(Cl)ccc1Oc1ccc(F)cc1Cl [Compound 66, 5-chloro-2-(2-chloro-4-fluorophenoxy)-N-(2-oxo-1,2-dihydropyridin-4-yl)benzamide]	106%	0.037 µM	100%
